Patent publication US20260199500A1, “Camptothecin Derivative, Conjugate Thereof, Preparation Method Therefor and Medical Use Thereof” (priority 2023, published 2026)

How the values were obtained:
Format in all cases: cell-based
H82 (SCLC) cells = assay: Inhibition of H82 cells by compounds; conditions: PY-X (DXD) set to 1
Method: (§1) On the day of the experiment, the cells were digested with 0.25% trypsin (Gibco, 25200-072), filtered through a 40 μm sieve, diluted with the corresponding medium to a cell density of 1×10^4 cells/mL, and inoculated into a 96-well white cell culture plate (Beyotime, FCP968), with 100 μL of cells added per well. The culture plate was placed in a 37° C. incubator (Thermo 311) containing 5% C02 and incubated for 24 hours. On the second day, the samples to be tested were prepared as a stock solution at a final concentration of 1M in DMSO (Sigma, D1650), then diluted with the corresponding medium to a final concentration of 200 nM, and subjected to four-fold serial dilutions, resulting in a total of 9 concentrations. 100 μL of the diluted sample was added to each well of the 96-well plate. The plate was placed in a 37° C. incubator containing 5% CO2 and incubated for 144 hours. The cell culture plate was then removed, and 100 μL of the cell viability assay reagent (CellTiter-Glo® Luminescent Cell Viability Assay, Promega, G7571) was added to each well. The reaction was carried out in the dark at room temperature for 5 minutes. Luminescence values were read using a microplate reader (TECAN SPARK), and data were processed using Graphpad Prism 7 software.

H1650 (NSCLC) cells = assay: Inhibition of H1650 cells by compounds; conditions: PY-X (DXD) set to 1
Method: as §1

H1437 (NSCLC) cells = assay: Inhibition of H1437 cells by compounds; conditions: PY-X (DXD) set to 1
Method: as §1

SW1573 (NSCLC) cells = assay: Inhibition of SW1573 cells by compounds; conditions: PY-X (DXD) set to 1
Method: as §1

[1] = test system: PANC-1 (Pancreatic) cells; assay: Inhibition of PANC-1 cells by compounds; conditions: PY-X (DXD) set to 1
Method: as §1

Colo-205 (Colon) cells = assay: Inhibition of Colo-205 cells by compounds; conditions: PY-X (DXD) set to 1
Method: as §1

HT-29 (Colon) cells = assay: Inhibition of HT-29 cells by compounds; conditions: PY-X (DXD) set to 1
Method: as §1

A549 (NSCLC) cells = assay: Inhibition of A549 cells by compounds; conditions: PY-X (DXD) set to 1
Method: as §1

[2] = test system: SW1990 (Pancreatic) cells; assay: Inhibition of SW1990 cells by compounds; conditions: PY-X (DXD) set to 1
Method: as §1

DMS53 (SCLC) cells = assay: Inhibition of DMS53 cells by compounds; conditions: PY-X (DXD) set to 1
Method: as §1

N87 gastric cancer cells = assay: Inhibitory activity of compounds on N87 gastric cancer cells (CellTiter-Glo, 144 h); conditions: IC50 of PY-X (DXD) set to 1; values are ratios of measured IC50 to DXD; 144 h
Method: as §1
(§2) PY—Y is referenced in the document (WO2022170971A1); and PY-A is referenced in the document (WO2021148501A1).

[3] = test system: MDA-MB-468 breast cancer cells; assay: Inhibitory activity of compounds on MDA-MB-468 breast cancer cells (CellTiter-Glo); conditions: IC50 of PY-X (DXD) set to 1; values are ratios of measured IC50 to DXD
Method: as §1, §2

H358 (NSCLC) cells = assay: Inhibition of H358 cells by compounds; conditions: PY-X (DXD) set to 1
Method: as §1

H1975 (NSCLC) cells = assay: Inhibition of H1975 cells by compounds; conditions: PY-X (DXD) set to 1
Method: as §1

H23 (NSCLC) cells = assay: Inhibition of H23 cells by compounds; conditions: PY-X (DXD) set to 1
Method: as §1

FADU (HNSCC) cells = assay: Inhibition of FADU cells by compounds; conditions: PY-X (DXD) set to 1
Method: as §1

OVCAR3 (Ovarian) cells = assay: Inhibition of OVCAR3 cells by compounds; conditions: PY-X (DXD) set to 1
Method: as §1

PA-1 (Ovarian) cells = assay: Inhibition of PA-1 cells by compounds; conditions: PY-X (DXD) set to 1
Method: as §1

## CC[C@@]1(O)C(=O)OCc2c1cc1n(c2=O)Cc2c-1nc1cc(F)c(CO)c3c1c2CCC3 [PY-10, (S)-9-ethyl-5-fluoro-9-hydroxy-4-(hydroxymethyl)-1,2,3,9,12,15-hexahydro-10H,13H-benzo[de]pyrano[3′,4′:6,7]indolizino[1,2-b]quinolin-10,13-dione]
H82 (SCLC) cells
  IC50 in H82 cells, ratio to DXD: 0.1525
H1650 (NSCLC) cells
  IC50 in H1650 cells, ratio to DXD: 0.0456
H1437 (NSCLC) cells
  IC50 in H1437 cells, ratio to DXD: 0.1209
SW1573 (NSCLC) cells
  IC50 in SW1573 cells, ratio to DXD: 0.1540
[1]
  IC50 in PANC-1 cells, ratio to DXD: 0.0915
Colo-205 (Colon) cells
  IC50 in Colo-205 cells, ratio to DXD: 0.1546
HT-29 (Colon) cells
  IC50 in HT-29 cells, ratio to DXD: 0.0874
A549 (NSCLC) cells
  IC50 in A549 cells, ratio to DXD: 0.0792
[2]
  IC50 in SW1990 cells, ratio to DXD: 0.2133
DMS53 (SCLC) cells
  IC50 in DMS53 cells, ratio to DXD: 0.1968

## CC[C@@]1(O)C(=O)OCc2c1cc1n(c2=O)Cc2c-1nc1cc(F)c(O)c3c1c2CCC3 [PY-13, (S)-9-ethyl-5-fluoro-4,9-dihydroxy-1,2,3,9,12,15-hexahydro-10H,13H-benzo[de]pyrano[3′,4:6,7]indolizino[1,2-b]quinolin-10,13-dione]
N87 gastric cancer cells
  IC50 on N87 cells, ratio to DXD: 0.0852
[3]
  IC50 on 468 cells, ratio to DXD: 0.0798
H358 (NSCLC) cells
  IC50 in H358 cells, ratio to DXD: 0.1062
H82 (SCLC) cells
  IC50 in H82 cells, ratio to DXD: 0.1364
H1650 (NSCLC) cells
  IC50 in H1650 cells, ratio to DXD: 0.0415
H1975 (NSCLC) cells
  IC50 in H1975 cells, ratio to DXD: 0.0426
H1437 (NSCLC) cells
  IC50 in H1437 cells, ratio to DXD: 0.0969
H23 (NSCLC) cells
  IC50 in H23 cells, ratio to DXD: 0.0819
SW1573 (NSCLC) cells
  IC50 in SW1573 cells, ratio to DXD: 0.1570
[1]
  IC50 in PANC-1 cells, ratio to DXD: 0.0810
Colo-205 (Colon) cells
  IC50 in Colo-205 cells, ratio to DXD: 0.1643
HT-29 (Colon) cells
  IC50 in HT-29 cells, ratio to DXD: 0.1434
A549 (NSCLC) cells
  IC50 in A549 cells, ratio to DXD: 0.0899
FADU (HNSCC) cells
  IC50 in FADU cells, ratio to DXD: 0.1648
OVCAR3 (Ovarian) cells
  IC50 in OVCAR3 cells, ratio to DXD: 0.0560
PA-1 (Ovarian) cells
  IC50 in PA-1 cells, ratio to DXD: 0.1600
[2]
  IC50 in SW1990 cells, ratio to DXD: 0.1255
DMS53 (SCLC) cells
  IC50 in DMS53 cells, ratio to DXD: 0.1624

## CC[C@@]1(O)C(=O)OCc2c1cc1n(c2=O)Cc2c-1nc1cc(F)c(CN)c3c1c2CCC3 [PY-16, (S)-4-(aminomethyl)-9-ethyl-5-fluoro-9-hydroxy-1,2,3,9,12,15-hexahydro-10H,13H-benzo[de]pyrano[3′,4′:6,7]indolizino[1,2-b]quinolin-10,13-dione]
H82 (SCLC) cells
  IC50 in H82 cells, ratio to DXD: 0.3391
H1650 (NSCLC) cells
  IC50 in H1650 cells, ratio to DXD: 0.1421
H1437 (NSCLC) cells
  IC50 in H1437 cells, ratio to DXD: 0.2768
SW1573 (NSCLC) cells
  IC50 in SW1573 cells, ratio to DXD: 0.2256
[1]
  IC50 in PANC-1 cells, ratio to DXD: 0.1325
Colo-205 (Colon) cells
  IC50 in Colo-205 cells, ratio to DXD: 0.3082
HT-29 (Colon) cells
  IC50 in HT-29 cells, ratio to DXD: 0.1933
A549 (NSCLC) cells
  IC50 in A549 cells, ratio to DXD: 0.2053
[2]
  IC50 in SW1990 cells, ratio to DXD: 0.4346
DMS53 (SCLC) cells
  IC50 in DMS53 cells, ratio to DXD: 0.5137

## exatecan mesylate [PY-E, reference compound]
N87 gastric cancer cells
  IC50 on N87 cells, ratio to DXD: 0.4782
[3]
  IC50 on 468 cells, ratio to DXD: 0.3546
H358 (NSCLC) cells
  IC50 in H358 cells, ratio to DXD: 0.2694
H82 (SCLC) cells
  IC50 in H82 cells, ratio to DXD: 0.5103
H1650 (NSCLC) cells
  IC50 in H1650 cells, ratio to DXD: 0.1570
H1975 (NSCLC) cells
  IC50 in H1975 cells, ratio to DXD: 0.0963
H1437 (NSCLC) cells
  IC50 in H1437 cells, ratio to DXD: 0.2303
H23 (NSCLC) cells
  IC50 in H23 cells, ratio to DXD: 0.1245
SW1573 (NSCLC) cells
  IC50 in SW1573 cells, ratio to DXD: 0.3310
[1]
  IC50 in PANC-1 cells, ratio to DXD: 0.1086
Colo-205 (Colon) cells
  IC50 in Colo-205 cells, ratio to DXD: 0.2938
HT-29 (Colon) cells
  IC50 in HT-29 cells, ratio to DXD: 0.1376
A549 (NSCLC) cells
  IC50 in A549 cells, ratio to DXD: 0.1645
FADU (HNSCC) cells
  IC50 in FADU cells, ratio to DXD: 0.4464
OVCAR3 (Ovarian) cells
  IC50 in OVCAR3 cells, ratio to DXD: 0.2269
PA-1 (Ovarian) cells
  IC50 in PA-1 cells, ratio to DXD: 0.3572
[2]
  IC50 in SW1990 cells, ratio to DXD: 0.3581
